Counter-ions that a name gives are not always drawn.
Key:
[1] = Brain penetration in rats: brain to plasma ratio (Kp,brain); type: in vivo; settings: rat; Sprague-Dawley rats (3/compound), IV infusion 1 mg/kg/hr over 8 hours, plasma and brain homogenate at 24 hours, Cbrain/Cplasma, mean
Description: To understand the brain penetration, brain to plasma ratios of the compounds were obtained in Sprague-Dawley (SD) rats. In vivo equilibrium distribution between blood and brain in preclinical species such as rats is a commonly used parameter to evaluate brain penetration. Kp,brain is the ratio of concentrations in brain and blood (Cbrain/Cplasma). The compound's passive diffusion characteristics, its affinity for membrane transporters at the blood-brain barrier (BBB), and the relative drug binding affinity differences between the plasma proteins and brain tissue influence the Kp,brain. Compounds with Kp,brain smaller than 0.1 have restricted access to the CNS, whereas compounds with Kp,brain greater than 0.3-0.5 are considered to have good brain penetration and compounds with Kp,brain greater than 1 freely cross the BBB (Expert Opin. Drug Delivery (2016) 13 (01): 85-92).
The brain penetration of the compounds disclosed herein was measured in Sprague-Dawley rats (3/compound). The animals received IV infusion of 1 mg/kg/hr of the compound over 8 hours via jugular vein cannulation. At 24 hours, blood was collected via tail vein bleeding or cardiac puncture (under anesthesia) and centrifuged to obtain plasma samples. Brain tissues were collected and homogenized with phosphate-buffered saline (PBS). […]

KIT D816V = KIT D816V (Homo sapiens, UniProt P10721, D816V); assay: KIT (D816V) mutant biochemical enzymatic activity inhibition assay (EZReader 2 mobility shift) at APPKM for ATP; settings: 0.3 nM enzyme, 20 μM ATP (APPKM), 1 μM Src tide, 25° C., 60 minutes; read-out: Kit D816V @ ATP Km IC50
Sequence of KIT D816V (P10721 26-976 D816V): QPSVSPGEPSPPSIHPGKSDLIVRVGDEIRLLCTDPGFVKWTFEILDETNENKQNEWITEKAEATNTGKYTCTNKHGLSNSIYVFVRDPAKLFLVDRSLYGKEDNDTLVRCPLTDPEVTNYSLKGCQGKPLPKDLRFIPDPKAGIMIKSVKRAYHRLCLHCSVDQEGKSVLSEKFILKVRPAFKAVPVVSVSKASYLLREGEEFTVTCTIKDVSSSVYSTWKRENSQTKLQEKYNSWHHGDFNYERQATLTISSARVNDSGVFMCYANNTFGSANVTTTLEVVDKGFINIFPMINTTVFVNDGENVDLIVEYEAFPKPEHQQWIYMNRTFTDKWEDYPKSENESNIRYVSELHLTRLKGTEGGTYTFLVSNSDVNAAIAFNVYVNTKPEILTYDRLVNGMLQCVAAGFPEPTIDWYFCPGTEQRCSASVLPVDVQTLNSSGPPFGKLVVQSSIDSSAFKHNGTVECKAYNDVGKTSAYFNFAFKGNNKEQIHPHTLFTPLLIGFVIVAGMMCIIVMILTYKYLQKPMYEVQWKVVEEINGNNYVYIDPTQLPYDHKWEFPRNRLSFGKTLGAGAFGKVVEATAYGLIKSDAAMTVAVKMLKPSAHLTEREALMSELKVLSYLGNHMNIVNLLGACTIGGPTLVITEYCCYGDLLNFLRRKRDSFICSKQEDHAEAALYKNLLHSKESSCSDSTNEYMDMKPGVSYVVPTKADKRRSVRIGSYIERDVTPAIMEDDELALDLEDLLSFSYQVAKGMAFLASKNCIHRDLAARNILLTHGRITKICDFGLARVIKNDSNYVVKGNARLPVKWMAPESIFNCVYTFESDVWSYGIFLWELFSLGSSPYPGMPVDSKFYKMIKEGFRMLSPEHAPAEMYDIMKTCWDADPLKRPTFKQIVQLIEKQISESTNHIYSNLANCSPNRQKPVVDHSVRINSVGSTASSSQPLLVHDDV
Description: PDGFRα and KIT enzymatic activity was monitored using the Perkin Elmer electrophoretic mobility shift technology platform, the EZReader 2.
Within the linear, steady-state phase of the kinase enzymatic reaction, the mixed pool of phosphorylated (product) and non-phosphorylated (substrate) peptides was passed through the microfluidic system of the PerkinElmer EZ Reader 2, under an applied electric potential difference. The presence of the phosphate group on the product peptide provided a difference in mass and charge between that of the substrate peptide, resulting in a separation of the substrate and product pools in the sample (Perrin et al., Expert Opin Drug Discovery 2010, Jan. 5(1):51-63).
As the product and substrate peptide mixture passes the lasers within the instrument, these pools are detected (λex=488 nm, λem=568 nm) and resolved as separate peaks. The ratio between these peaks reflects the activity of the compound at that concentration, in that well, under those conditions.
All test articles were dissolved in 100% DMSO at a stock concentration of 10 mM. A 100×, 10-point, 4-fold serial dilution of all test compounds was created in 100% DMSO, starting at a relevant concentration, usually 1 mM. A volume of 130 nL of each concentration was transferred to the relevant well of a 384-well assay plate (Greiner 781 201) using a TTPLabtech Mosquito nano-liter dispenser. Using the Multidrop, the remaining constituents of the reaction were then added to the 130 nL of compound as follows:
The reaction was stopped by the addition of 70 μl of Stop buffer (100 mM HEPES pH 7.5, 0.015% Brij 35, 35 mM EDTA and 0.2% of Coating Reagent 3, Caliper Lifesciences). The plate was read on a Caliper EZReader 2. For biochemical D816V and D842V activity, the following designations are used: ≤0.30 nM=A; ≥0.31 and <1.4 nM=B; ≥1.4 nM=C; and ND=not determined.

[2] = Unbound brain to plasma ratio (Kpuu,brain), from brain and plasma concentrations and equilibrium dialysis unbound fractions; type: in vivo, Sprague-Dawley rats; settings: Sprague-Dawley, brain homogenate / plasma (unbound), intravenous, 1 mg/kg/hr; rat; calculated from brain and plasma concentrations and fu,brain (brain homogenate equilibrium dialysis), mean
Experimental: The brain penetration of the compounds disclosed herein was measured in Sprague-Dawley rats (3/compound). The animals received IV infusion of 1 mg/kg/hr of the compound over 8 hours via jugular vein cannulation. At 24 hours, blood was collected via tail vein bleeding or cardiac puncture (under anesthesia) and centrifuged to obtain plasma samples. Brain tissues were collected and homogenized with phosphate-buffered saline (PBS). The concentrations of the compounds were obtained in the plasma and brain homogenates by LC-MS/MS analysis.
Rat plasma protein binding of the tested compounds were evaluated in vitro using an equilibrium dialysis method. The tested compounds were assessed in 100% plasma in a dialysis block for 5 hours at 37° C. Samples from the donor and receiver sides were analyzed by LC-MS/MS. Plasma protein bound and unbound fractions were calculated using the following equations— […]
where: [Donor]5h is measured donor concentration at 5-hour; [Received]5h is measured receiver concentration at 5-hour; fb* is bound fraction determined from plasma; fu,p* is calculated unbound fraction for plasma. […]
Similarly, rat brain protein binding of the tested compounds was also evaluated in vitro using equilibrium dialysis method. […] of the compound was assessed in brain homogenate in a dialysis block for 5 hours at 37° C. Samples from the donor and receiver sides were analyzed by LC-MS/MS. […]

SMILES	Kp at 24 h [1]	IC50 (KIT D816V)	Kp uu at 24 h [2]
C[C@](N)(c1ccc(F)cc1)c1cnc(C2=CCN(c3ncnn4cc(-c5cnn(CCO)c5)cc34)CC2)nc1 [Compound 1, (S)-2-(4-(4-(4-(5-(1-amino-1-(4-fluorophenyl)ethyl)pyrimidin-2-yl)-3,6-dihydropyridin-1(2H)-yl)pyrrolo[2,1-f][1,2,4]triazin-6-yl)-1H-pyrazol-1-yl)ethan-1-ol]	0.133	0.31 to 1.4 nM	0.017
C[C@](N)(c1ccc(F)cc1)c1cnc(N2CCN(c3ncnc4[nH]c(-c5cnn(CCO)c5)cc34)CC2)nc1.Cl [Compound 2, (S)-2-(4-(4-(4-(5-(1-amino-1-(4-fluorophenyl)ethyl)pyrimidin-2-yl)piperazin-1-yl)-7H-pyrrolo[2,3-d]pyrimidin-6-yl)-1H-pyrazol-1-yl)ethan-1-ol hydrochloride]	0.045	≤ 0.3 nM	0.01
C[C@](N)(c1ccc(F)cc1)c1cnc(N2CCN(c3ncnc4[nH]c(-c5cnn(C6COC6)c5)cc34)CC2)nc1 [Compound 3, (S)-1-(4-fluorophenyl)-1-(2-(4-(6-(1-(oxetan-3-yl)-1H-pyrazol-4-yl)-7H-pyrrolo[2,3-d]pyrimidin-4-yl)piperazin-1-yl)pyrimidin-5-yl)ethan-1-amine]	–	≤ 0.3 nM	–
C[C@@H](O)Cn1cc(-c2cc3c(N4CCN(c5ncc([C@@](C)(N)c6ccc(F)cc6)cn5)CC4)ncnc3[nH]2)cn1 [Compound 4, (R)-1-(4-(4-(4-(5-((S)-1-amino-1-(4-fluorophenyl)ethyl)pyrimidin-2-yl)piperazin-1-yl)-7H-pyrrolo[2,3-d]pyrimidin-6-yl)-1H-pyrazol-1-yl)propan-2-ol]	–	0.31 to 1.4 nM	–
C[C@H](O)Cn1cc(-c2cc3c(N4CCN(c5ncc([C@@](C)(N)c6ccc(F)cc6)cn5)CC4)ncnc3[nH]2)cn1 [Compound 5, (S)-1-(4-(4-(4-(5-((S)-1-amino-1-(4-fluorophenyl)ethyl)pyrimidin-2-yl)piperazin-1-yl)-7H-pyrrolo[2,3-d]pyrimidin-6-yl)-1H-pyrazol-1-yl)propan-2-ol hydrochloride]	–	0.31 to 1.4 nM	–
C[C@](N)(c1ccc(F)cc1)c1cnc(N2CCN(c3ncnc4[nH]c(-c5cnn(CC6COC6)c5)cc34)CC2)nc1 [Compound 6, (S)-1-(4-fluorophenyl)-1-(2-(4-(6-(1-(oxetan-3-ylmethyl)-1H-pyrazol-4-yl)-7H-pyrrolo[2,3-d]pyrimidin-4-yl)piperazin-1-yl)pyrimidin-5-yl)ethan-1-amine hydrochloride]	–	0.31 to 1.4 nM	–
